From patent US11286263B2, “Macrocyclic fluorine substituted indole derivatives” (The Broad Institute, Inc., priority 2017, dated 2022)
Where “and” joins values, the source holds several entries; their conditions need not be identical. Equal entries are not always repeated. Structures can show the parent of a compound that is named as a salt. Where two headings read alike, the source gives them in different places.

Legend:
SUDHL10 = assay: Induction of caspase-3/7 activity, SUDHL10 (Assay 4); type: cell-based; details: SUDHL10 cells
Outline: (§1)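 DLBCL lines treated with compounds for 3 h at 37° C.; caspase-3/7 activity read by Caspase-Glo 3/7 luminescence. Medium-only background subtracted; EC50 fitted with bottom fixed at 1 and top set to reference compound's maximal induction.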

SUDHL5 [1] = assay: Induction of caspase-3/7 activity, SUDHL5 (Assay 4); type: cell-based; details: SUDHL5 cells
Outline: as §1

A2780 = assay: Antiproliferation assay A2780 (Assay 7); type: cell-based; details: A2780 cells, CellTiter-Glo, single determinations, read-out: IC50 Antiproli A2780
Outline: (§2)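 A reference plate measured at day 0 set the time-zero baseline. Treated plates were read by CellTiter-Glo luminescence after 72 h of compound exposure at 37°C in a humidified incubator.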

SUDHL5 [2] = assay: Antiproliferation assay SUDHL5 (Assay 7); type: cell-based; details: SUDHL5 cells, CellTiter-Glo, median, read-out: IC50 Antiproli SUDHL5 [M] (median)
Outline: as §2

BCL-XL = BCL-XL (Homo sapiens (Human), UniProt Q07817); assay: Protein-protein interaction assay BCL-XL/Bad BH3 peptide (BCL-XL assay), TR-FRET; type: binding; details: median
BCL-XL, sequence (Q07817 1-212): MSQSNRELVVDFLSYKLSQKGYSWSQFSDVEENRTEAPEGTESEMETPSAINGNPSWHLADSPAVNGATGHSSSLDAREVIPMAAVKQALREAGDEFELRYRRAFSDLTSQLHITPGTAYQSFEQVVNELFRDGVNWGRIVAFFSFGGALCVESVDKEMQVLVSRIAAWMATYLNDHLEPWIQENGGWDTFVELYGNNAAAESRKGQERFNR
Description: Assay 2 Protein-Protein Interaction Assay: BCL-XL/Bad BH3 Peptide (BCL-XL Assay)
The dose-dependent inhibition by the compounds described in this invention of the interaction between BCL-XL and the BH3 domain of Bad (both human) was determined using a steady state binding competition assay with time-resolved fluorescence energy transfer (TR-FRET) readout. For that purpose BCL-XL (amino acids 1-212, C-terminal fused to a hexahistidine (6× His) tag (SEQ ID 3) and a synthetic Bad BH3-derived peptide of sequence Biotin-PEG2-PEG2-NLWAAQRYGRELRR-Nle-SDEFVDSFKK-amide (SEQ ID 4) served as protein receptor and tracer ligand respectively. The recombinant BCL-XL protein (expressed in Ecol) was purchased from BPS Bioscience (San Diego, Calif., USA). The Bad BH3-derived peptide can be obtained from e.g. Biosyntan (Berlin, Germany).
In the assay 11 different concentrations of each compound (0.1 nM, 0.33 nM, 1.1 nM, 3.8 nM, 13 nM, 44 nM, 0.15 μM, 0.51 μM, 1.7 μM, 5.9 μM and 20 μM) were typically measured as duplicates in the same microtiter plate. For that, 100-fold concentrated DMSO solutions were prepared by serial dilutions (1:3.4) of a 2 mM stock solution in a clear, 384-well microtiter plate (Greiner Bio-One, Frickenhausen, Germany). From there, 50 nl were transferred in a dark test plate (Greiner Bio-One, Frickenhausen, Germany). The assay was initiated by addition of 2 μl of a 2,5-fold concentrated His-BCL-XL solution (usually for a 1 nM end concentration in 5 μl reaction volume) in aqueous assay buffer [50 mM Tris/HCl pH 7, 100 mM sodium chloride (NaCl), 50 μM potassium fluoride (KF), 0.005% Tween-20, 2 mM DTT, 0.1% bovine gamma globulin (BGG)] to the compounds in the assay plate. This was followed by a 10-minute incubation step at 22° C. for pre-equilibration of the putative complex between His-BCL-XL and the compounds. After that, 3 μl of a 1.67-fold concentrated solution (in assay buffer) consisting of Bad BH3-derived peptide (1 nM end concentration) and TR-FRET detection reagents [1.67 nM anti-His-Eu cryptate and 1.67 nM streptavidin-XL665 (both from Cisbio Bioassays, Codolet, France)], were added.
The mixture was incubated in the dark for one hour at 22° C. and then overnight at 4° C. The formation of BCL-XL/Bad complexes was determined by measuring the resonance energy transfer of the anti-His-Eu-cryptate antibody to the streptavidin-XL665 present in the reaction. For that purpose, the fluorescence emission at 620 nm and 665 nm after excitation at 330-350 nm was measured in a TR-FRET measuring instrument, for instance a Rubystar or a Pherastar (both from BMG Lab Technologies, Offenburg, Germany) or a Viewlux (Perkin-Elmer). The ratio of the emission at 665 nm and at 622 nm was used as indicator of the amount of BCL-XL/Bad complexes present.
The resulting data (ratio) were normalized, taking 0% inhibition as the mean value of control measurements (usually 32 data points) where all reagents were included. In this case 50 nl DMSO were used instead of compounds. A 100% inhibition corresponded to the mean value of control measurements (usually 32 data points) where all reagents except BCL-XL were included. IC50 values were determined by regression analysis based on a 4 parameter equation (minimum, maximum, IC50, Hill; Y=Max+(Min−Max)/(1+(X/IC50)^Hill) using the Screener Software (Genedata).

[3] = Homo sapiens, SU-DHL10, 3 h, Caspase-Glo 3/7, median
[4] = Homo sapiens, SU-DHL-5, 3 h, Caspase-Glo 3/7, median

| Compound | EC50 (SUDHL10; [3]) [nM] | EC50 (SUDHL5 [1]; 3 h, Caspase-Glo 3/7, median) [nM] | IC50 (SUDHL5 [2]; 72 h) [M] | EC50 (SUDHL10; 3 h, Caspase-Glo 3/7, median) [nM] | also measured |
| --- | --- | --- | --- | --- | --- |
| Cc1c2c(nn1C)COCCCCn1c(C(=O)O)c(CCCOc3cccc4ccccc34)c3ccc(F)c-2c31 (racemic) [Example 2, (rac)-4-fluoro-2,3-dimethyl-7-[3-(naphthalen-1-yloxy)propyl]-2,10,11,12,13,15-hexahydro-pyrazolo[4′,3′:9,10][1,6]oxazacycloundecino[8,7,6-hi]indole-8-carboxylic acid] | 1300 | – | – | – | EC50 (SUDHL5 [1]; [4]): 600 nM; IC50 (A2780; 72 h, listed as 02): 12200 nM and 14500 nM; IC50 (A2780; Homo sapiens, A2780, 72 h): 13000 nM; IC50 (SUDHL5 [2]; Homo sapiens, SU-DHL-5, 72 h): 1.4e-06 M |
| Cc1c2c(nn1C)COCCCCn1c(C(=O)O)c(CCCOc3ccc(F)c4ccccc34)c3ccc(F)c-2c31 (racemic) [Example 15, (rac)-13-fluoro-1-(3-((4-fluoronaphthalen-1-yl)oxy)propyl)-11,12-dimethyl-4,5,6,7,9,11-hexahydropyrazolo[4′,3′:9,10][1]oxa[6]azacycloundecino[8,7,6-hi]indole-2-carboxylic acid] | 5800 | – | – | – | IC50 (BCL-XL): > 20000 nM; EC50 (SUDHL5 [1]; [4]): 970 nM; IC50 (SUDHL5 [2]; Homo sapiens, SU-DHL-5, 72 h): 5.3e-07 M |
| Cc1c2c(nn1C)COCCCCn1c(C(=O)O)c(CCCOc3cccc4c3CCCC4)c3ccc(F)c-2c31 (racemic) [Example 18, (rac)-13-fluoro-11,12-dimethyl-1-(3-((5,6,7,8-tetrahydronaphthalen-1-yl)oxy)propyl)-4,5,6,7,9,11-hexahydropyrazolo[4′,3′:9,10][1]oxa[6]azacycloundecino[8,7,6-hi]indole-2-carboxylic acid] | 2300 | – | – | – | IC50 (BCL-XL): > 20000 nM; EC50 (SUDHL5 [1]; [4]): 840 nM; IC50 (SUDHL5 [2]; Homo sapiens, SU-DHL-5, 72 h): 1.2e-06 M |
| Cc1c2c(nn1C)COCCCCn1c(C(=O)O)c(CCCOc3cccc4ccccc34)c3ccc(F)c-2c31 (single isomer, unassigned; enantiomer 1) [Example 3, 4-fluoro-2,3-dimethyl-7-[3-(naphthalen-1-yloxy)propyl]-2,10,11,12,13,15-hexahydropyrazolo-[4′,3′:9,10][1,6]oxazacycloundecino[8,7,6-hi]indole-8-carboxylic acid-N-ethylethanamine salt (enantiomer 1)] | 1300 | 650 | 6.4e-07 | – | IC50 (A2780; 72 h, listed as 03): 23800 nM and 17600 nM and 15300 nM |
| CCc1c2c(nn1C)COCCCCn1c(C(=O)O)c(CCCOc3cccc4ccccc34)c3ccc(F)c-2c31 (single isomer, unassigned; enantiomer 1) [Example 7, 3-ethyl-4-fluoro-2-methyl-7-{3-[(naphthalen-1-yl)oxy]propyl}-2,10,11,12,13,15-hexahydro-pyrazolo[4′,3′:9,10][1,6]oxazacycloundecino[8,7,6-hi]indole-8-carboxylic acid-N-ethylethanamine salt (enantiomer 1)] | – | 370 | 7.5e-07 | 1000 | IC50 (A2780; 72 h, listed as 07): 8840 nM and 13200 nM |
| Cc1c2c(nn1C)COCCCCn1c(C(=O)O)c(CCCOc3cccc4cc(F)ccc34)c3ccc(F)c-2c31 (single isomer, unassigned; enantiomer 1) [Example 13, 4-fluoro-7-{3-[(6-fluoronaphthalen-1-yl)oxy]propyl}-2,3-dimethyl-2,10,11,12,13,15-hexahydro-pyrazolo[4′,3′:9,10][1,6]oxazacycloundecino[8,7,6-hi]indole-8-carboxylic acid-N-ethylethanamine salt (enantiomer 1)] | – | 340 | 2.9e-07 | 680 | IC50 (A2780; 72 h): 4110 nM |
| CCc1c2c(nn1C)COCCCCn1c(C(=O)O)c(CCCOc3cccc4cc(F)ccc34)c3ccc(F)c-2c31 (single isomer, unassigned; enantiomer 1) [Example 22, 3-ethyl-4-fluoro-7-{3-[(6-fluoronaphthalen-1-yl)oxy]propyl}-2-methyl-2,10,11,12,13,15-hexahydropyrazolo[4′,3′:9,10][1,6]oxazacycloundecino[8,7,6-hi]indole-8-carboxylic acid-N-ethylethanamine salt (enantiomer 1)] | – | 210 | 2.7e-07 | 380 | IC50 (A2780; Homo sapiens, A2780, 72 h): 3880 nM |
| CCc1c2c(nn1C)COCCCCn1c(C(=O)O)c(CCCOc3cccc4cc(F)ccc34)c3ccc(F)c-2c31 (single isomer, unassigned; enantiomer 1) [Example 24, 3-ethyl-4-fluoro-7-{3-[(6-fluoronaphthalen-1-yl)oxy]propyl}-2-methyl-2,10,11,12,13,15-hexahydropyrazolo[4′,3′:9,10][1,6]oxazacycloundecino[8,7,6-hi]indole-8-carboxylic acid (enantiomer 1)] | – | – | 3.2e-07 | 540 | IC50 (BCL-XL): > 20000 nM |
| CCc1c2c(nn1C)COCCCCn1c(C(=O)O)c(CCCOc3ccc(F)c4ccccc34)c3ccc(F)c-2c31 (single isomer, unassigned; enantiomer 1) [Example 27, 3-ethyl-4-fluoro-7-{3-[(4-fluoronaphthalen-1-yl)oxy]propyl}-2-methyl-2,10,11,12,13,15-hexahydropyrazolo[4′,3′:9,10][1,6]oxazacycloundecino[8,7,6-hi]indole-8-carboxylic acid-N-ethylethanamine salt (enantiomer 1)] | – | 660 | 6.2e-07 | 1600 | – |
| CCc1nn(C)c2c1-c1c(F)ccc3c(CCCOc4cccc5cc(F)ccc45)c(C(=O)O)n(c13)CCCCOC2 (single isomer, unassigned; enantiomer 1) [Example 39, 3-ethyl-4-fluoro-7-{3-[(6-fluoronaphthalen-1-yl)oxy]propyl}-1-methyl-1,10,11,12,13,15-hexahydropyrazolo[4′,3′:9,10][1,6]oxazacycloundecino[8,7,6-hi]indole-8-carboxylic acid-N-ethylethanamine salt (enantiomer 1)] | – | 560 | 6.8e-07 | 940 | IC50 (A2780; 72 h): 4840 nM |
| CCc1c2c(nn1C)COCCCCn1c(C(=O)O)c(CCCOc3cccc4cc(F)ccc34)c3ccc(F)c-2c31 (single isomer, unassigned; enantiomer 2) [Example 23, 3-ethyl-4-fluoro-7-{3-[(6-fluoronaphthalen-1-yl)oxy]propyl}-2-methyl-2,10,11,12,13,15-hexahydropyrazolo[4′,3′:9,10][1,6]oxazacycloundecino[8,7,6-hi]indole-8-carboxylic acid-N-ethylethanamine salt (enantiomer 2)] | – | 2700 | 1.4e-06 | 11000 | – |
